From ChEMBL document CHEMBL1134424, “Synthesis and evaluation of caffeic acid amides as antioxidants” (Bioorg Med Chem Lett, 2001)

Assay: Evaluated for the antioxidant property by measuring the inhibition of microsomal lipid peroxidation
Type: functional

In order of rising IC50:
1. O=C(/C=C/c1ccc(O)c(O)c1)Nc1ccccc1O  290 nM
2. O=C(/C=C/c1ccc(O)c(O)c1)Nc1cccc(O)c1  370 nM
3. O=C(/C=C/c1ccc(O)c(O)c1)Nc1ccccc1  380 nM
4. O=C(/C=C/c1ccc(O)c(O)c1)NCCc1ccc(O)c(O)c1  590 nM
5. O=C(/C=C/c1ccc(O)c(O)c1)Nc1ccc(O)cc1  630 nM
6. O=C(/C=C/c1ccc(O)c(O)c1)NCCc1ccccc1 [CAFFEIC ACID PHENETHYL AMIDE]  850 nM
7. O=c1c(O)c(-c2ccc(O)c(O)c2)oc2cc(O)cc(O)c12 [QUERCETIN]  950 nM
8. O=C(/C=C/c1ccc(O)c(O)c1)NCc1ccccc1  1020 nM
9. CC(C)CCNC(=O)/C=C/c1ccc(O)c(O)c1  1400 nM
10. NC(=O)/C=C/c1ccc(O)c(O)c1  2200 nM
11. C=CCNC(=O)/C=C/c1ccc(O)c(O)c1  2200 nM
12. CC(C)CNC(=O)/C=C/c1ccc(O)c(O)c1  2200 nM
13. O=C(/C=C/c1ccc(O)c(O)c1)N1CCCC1  2400 nM
14. CCNC(=O)/C=C/c1ccc(O)c(O)c1  2700 nM
15. Cc1c(C)c2c(c(C)c1O)CCC(C)(C(=O)O)O2 (stereo not given) [TROLOX]  2800 nM
16. COC(=O)C(Cc1ccc(O)cc1)NC(=O)/C=C/c1ccc(O)c(O)c1 (stereo not given)  3200 nM
17. O=C(O)/C=C/c1ccc(O)c(O)c1 [CAFFEIC ACID]  3300 nM
18. CC(C)=CCNC(=O)/C=C/c1ccc(O)c(O)c1  3400 nM
19. O=C(/C=C/c1ccc(O)c(O)c1)N1CCCCC1  3600 nM
20. CC(C)NC(=O)/C=C/c1ccc(O)c(O)c1  3900 nM
21. CCN(CC)C(=O)/C=C/c1ccc(O)c(O)c1  4100 nM
22. CNC(=O)/C=C/c1ccc(O)c(O)c1  6000 nM
23. O=C(/C=C/c1ccc(O)c(O)c1)N1CCOCC1  6100 nM
24. CC(C)=CCNC(=O)/C=C/c1ccc(O)cc1  29100 nM
25. O=C(O)/C=C/c1ccc(O)cc1 [COUMARIC ACID]  100000 nM
